This note sets out measurements from patent US20090111798A1, “5,6-DIHYDRO-1H-PYRIDIN-2-ONE COMPOUNDS” (priority 2006, published 2009).

The assay addresses NS5B polymerase (Hepatitis C virus genotype 1b, UniProt P26663). Briefly: biochemical. As to conditions: NS5B polymerase inhibition; 20 nM enzyme, 75 min at 28° C. The method, then: Compounds were tested for HCV polymerase inhibition. Assays were performed in a 96-well streptavidin-coated FlashPlate using 20 nM enzyme, 0.5μ Ci of [α-^33P]GTP, 0.6 μM GTP, and 250 nM 5′biotinylated oligo (rG13)/poly rC in 20 mM Tris-HCl, pH 7.5, 5 mM MgCl2, 5 mM dithiothreitol, 0.1 g/L bovine serum albumin, and 100 U/mL RNAse inhibitor. The reaction was stopped by aspiration after 75 min at 28° C. and the plate was washed several times. After washing and drying the plate, incorporated radioactivity was counted using a Microbeta scintillation counter. IC50 values were calculated relative to the uninhibited control and inhibition data were fitted to a 4-parameter IC50 equation.

Chain of NS5B polymerase (P26663 2420-3010): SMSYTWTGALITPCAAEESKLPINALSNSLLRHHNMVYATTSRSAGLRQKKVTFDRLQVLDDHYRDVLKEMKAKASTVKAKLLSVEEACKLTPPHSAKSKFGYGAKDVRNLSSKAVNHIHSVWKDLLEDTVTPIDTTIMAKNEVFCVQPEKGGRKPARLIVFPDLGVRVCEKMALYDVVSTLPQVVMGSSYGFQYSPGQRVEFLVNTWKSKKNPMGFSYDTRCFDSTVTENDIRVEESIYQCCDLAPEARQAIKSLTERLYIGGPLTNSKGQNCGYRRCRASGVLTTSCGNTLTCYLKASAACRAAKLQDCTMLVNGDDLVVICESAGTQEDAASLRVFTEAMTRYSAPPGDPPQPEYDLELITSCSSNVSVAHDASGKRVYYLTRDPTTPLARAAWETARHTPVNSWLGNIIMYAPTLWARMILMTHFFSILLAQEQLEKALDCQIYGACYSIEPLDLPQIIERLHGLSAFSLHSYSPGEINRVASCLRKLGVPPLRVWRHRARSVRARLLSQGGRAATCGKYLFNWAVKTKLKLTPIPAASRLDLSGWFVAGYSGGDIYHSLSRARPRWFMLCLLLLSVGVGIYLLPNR

For `CS(=O)(=O)Nc1ccc2c(c1)S(=O)(=O)N=C(C1=C(O)[C@@H]3CCC[C@@H]3N(Cc3ccc(F)c(F)c3)C1=O)N2` [Example 27, (4aR,7aS)—N-{3-[1-(3,4-Difluoro-benzyl)-4-hydroxy-2-oxo-2,4-a,5,6,7,7a-hexahydro-1H-[1]pyrindin-3-yl]-1,1-dioxo-1,4-dihydro-1λ^6-benzo[1,2,4]thiadiazin-7-yl]-methanesulfonamide], the IC50 (commonly the point on the concentration scale where inhibition reaches its midpoint) is less than 20 nM. As for `CC(C)CCN1C(=O)C(C2=NS(=O)(=O)c3cc(NS(C)(=O)=O)ccc3N2)=C(O)[C@@H]2CCC[C@@H]21` [Example 28, (4aR,7aS)—N-{3-[4-Hydroxy-1-(3-methyl-butyl)-2-oxo-2,4-a,5,6,7,7a-hexahydro-1H-[1]pyrindin-3-yl]-1,1-dioxo-1,4-dihydro-1λ^6-benzo[1,2,4]thiadiazin-7-yl]-methanesulfonamide], the figure is less than 20 nM. The figure for `CC(C)(C)CCN1C(=O)C(C2=NS(=O)(=O)c3cc(NS(C)(=O)=O)ccc3N2)=C(O)[C@@H]2CCC[C@@H]21` [Example 29, (4aR,7aS)—N-{3-[1-(3,3-Dimethyl-butyl)-4-hydroxy-2-oxo-2,4-a,5,6,7,7a-hexahydro-1H-[1]pyrindin-3-yl]-1,1-dioxo-1,4-dihydro-1λ^6-benzo[1,2,4]thiadiazin-7-yl]-methanesulfonamide] is less than 20 nM; for `CS(=O)(=O)Nc1ccc2c(c1)S(=O)(=O)N=C(C1=C(O)[C@@H]3CCC[C@@H]3N(CC3CC3)C1=O)N2` [Example 30, (4aR,7aS)—N-[3-(1-Cyclopropylmethyl-4-hydroxy-2-oxo-2,4-a,5,6,7,7a-hexahydro-1H-[1]pyrindin-3-yl)-1,1-dioxo-1,4-dihydro-1λ^6-benzo[1,2,4]thiadiazin-7-yl]-methanesulfonamide] it is 100 to 1000 nM; for `CS(=O)(=O)Nc1ccc2c(c1)S(=O)(=O)N=C(C1=C(O)[C@H]3CCCC[C@H]3N(Cc3ccc(F)cc3)C1=O)N2` [Example 31, (4aS, 8aR)—N-{3-[1-(4-Fluoro-benzyl)-4-hydroxy-2-oxo-1,2,4a,5,6,7,8,8a-octahydro-quinolin-3-yl]-1,1-dioxo-1,4-dihydro-1λ^6 benzo[1,2,4]thiadiazin-7-yl]-methanesulfonamide] it is 20 to 100 nM. Consider `CC(C)(C)CCN1C(=O)C(C2=NS(=O)(=O)c3cc(NS(C)(=O)=O)ccc3N2)=C(O)C2CCCCCC21` (centres unmarked) [Example 32, N-{3-[1-(3,3-Dimethyl-butyl)-4-hydroxy-2-oxo-2,4-a,5,6,7,8,9,9a-octahydro-1H-cyclohepta[b]pyridin-3-yl]-1,1-dioxo-1,4-dihydro-1λ^6-benzo[1,2,4]thiadiazin-7-yl]-methanesulfonamide], for which the IC50 lay within 20 to 100 nM. The figure for `CC(C)CCN1C(=O)C(C2=NS(=O)(=O)c3cc(NS(C)(=O)=O)ccc3N2)=C(O)C2CCCCCC21` (centres unmarked) [Example 33, N-{3-[4-Hydroxy-1-(3-methyl-butyl)-2-oxo-2,4-a,5,6,7,8,9,9a-octahydro-1H-cyclohepta[b]pyridin-3-yl]-1,1-dioxo-1,4-dihydro-1λ^6-benzo[1,2,4]thiadiazin-7-yl}-methanesulfonamide] is 20 to 100 nM. The figure for `CC(C)CCN1C(=O)C(C2=NS(=O)(=O)c3cc(N(C)S(C)(=O)=O)ccc3N2)=C(O)C2CCCCCC21` (centres unmarked) [Example 34, N-{3-[4-Hydroxy-1-(3-methyl-butyl)-2-oxo-2,4-a,5,6,7,8,9,9a-octahydro-1H-cyclohepta[b]pyridin-3-yl]-1,1-dioxo-1,4-dihydro-1λ^6-benzo[1,2,4]thiadiazin-7-yl}-N-methyl-methanesulfonamide] is 100 to 1000 nM; for `CC(C)(C)CCN1C(=O)C(C2=NS(=O)(=O)c3cc(NS(C)(=O)=O)ccc3N2)=C(O)C2CCCCCCC21` (centres unmarked) [Example 35, N-{3-[1-(3,3-Dimethyl-butyl)-4-hydroxy-2-oxo-1,2,4a,5,6,7,8,9,10,10a-decahydro-cycloocta[b]pyridin-3-yl]-1,1-dioxo-1,4-dihydro-1λ^6-benzo[1,2,4]thiadiazin-7-yl]-methanesulfonamide] it is 1000 to 100000 nM; for `CN(c1ccc2c(c1)S(=O)(=O)N=C(C1=C(O)C3CCCCCCC3N(CCC(C)(C)C)C1=O)N2)S(C)(=O)=O` (centres unmarked) [Example 36, N-{3-[1-(3,3-Dimethyl-butyl)-4-hydroxy-2-oxo-1,2,4a,5,6,7,8,9,10,10a-decahydro-cycloocta[b]pyridin-3-yl]-1,1-dioxo-1,4-dihydro-1λ^6-benzo[1,2,4]thiadiazin-7-yl]-N-methyl-methanesulfonamide] it is 1000 to 100000 nM. `O=C1C(C2=NS(=O)(=O)c3cc(I)ccc3N2)=C(O)[C@@H]2CCC[C@@H]2N1Cc1ccc(F)cc1` [Example 39, (4aR,7aS)-1-(4-Fluoro-benzyl)-4-hydroxy-3-(7-iodo-1,1-dioxo-1,4-dihydro-1λ^6-benzo[1,2,4]thiadiazin-3-yl)-1,4-a,5,6,7,7a-hexahydro-[1]pyrindin-2-one] displayed a concentration for half-maximal inhibition (IC50) of 1000 to 100000 nM.

`O=C1C(C2=NS(=O)(=O)c3cc(NS(=O)(=O)c4ccccc4)ccc3N2)=C(O)[C@@H]2CCC[C@@H]2N1Cc1ccc(F)cc1` [Example 40, (4aR,7aS)—N-{3-[1-(4-Fluoro-benzyl)-4-hydroxy-2-oxo-2,4-a,5,6,7,7a-hexahydro-1H-[1]pyrindin-3-yl]-1,1-dioxo-1,4-dihydro-1λ^6-benzo[1,2,4]thiadiazin-7-yl]-benzenesulfonamide] registered an IC50 of 20 to 100 nM. Regarding `O=C1C(C2=NS(=O)(=O)c3cc(N4CCCCC4)ccc3N2)=C(O)[C@@H]2CCC[C@@H]2N1Cc1ccc(F)cc1` [Example 42, (4aR,7aS)-3-(1,1-Dioxo-7-piperidin-1-yl-1,4-dihydro-1λ^6-benzo[1,2,4]thiadiazin-3-yl)-1-(4-fluoro-benzyl)-4-hydroxy-1,4-a,5,6,7,7a-hexahydro-[1]pyrindin-2-one], the IC50 lay in the range of 1000 to 100000 nM. The figure for `O=C1C(C2=NS(=O)(=O)c3cc(C4=CCCS4(=O)=O)ccc3N2)=C(O)[C@@H]2CCC[C@@H]2N1Cc1ccc(F)cc1` [Example 44, (4aR,7aS)-3-[7-(1,1-Dioxo-4,5-dihydro-1H-1λ^6-thiophen-2-yl)-1,1-dioxo-1,4-dihydro-1λ^6-benzo[1,2,4]thiadiazin-3-yl]-1-(4-fluoro-benzyl)-4-hydroxy-1,4a,5,6,7,7a-hexahydro-[1]pyrindin-2-one] is 100 to 1000 nM; for `O=C1C(C2=NS(=O)(=O)c3cc(I)ccc3N2)=C(O)C2CCCCCC2N1Cc1ccc(F)cc1` (centres unmarked) [Example 46, 1-(4-Fluoro-benzyl)-4-hydroxy-3-(7-iodo-1,1-dioxo-1,4-dihydro-1λ^6-benzo[1,2,4]thiadiazin-3-yl)-1,4-a,5,6,7,8,9,9a-octahydro-cyclohepta[b]pyridin-2-one] it is 1000 to 100000 nM; for `CS(=O)(=O)Nc1ccc2c(c1)S(=O)(=O)N=C(C1=C(O)C3CCCCC3N(C3CCCCC3)C1=O)N2` (centres unmarked) [Example 49, N-[3-(1-Cyclohexyl-4-hydroxy-2-oxo-1,2,4a,5,6,7,8,8a-octahydro-quinolin-3-yl)-1,1-dioxo-1,4-dihydro-1λ^6-benzo[1,2,4]thiadiazin-7-yl]-methanesulfonamide] it is 100 to 1000 nM.

In turn, `O=C1C(C2=NS(=O)(=O)c3cc(I)ccc3N2)=C(O)C2CCCCC2N1Cc1ccc(F)cc1` (centres unmarked) [Example 50, 1-(4-Fluoro-benzyl)-4-hydroxy-3-(7-iodo-1,1-dioxo-1,4-dihydro-1λ^6-benzo[1,2,4]thiadiazin-3-yl)-4-a,5,6,7,8,8a-hexahydro-1H-quinolin-2-one] registered a concentration for half-maximal inhibition (IC50) of 1000 to 100000 nM.
